PubChem BioAssay (NCI)
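Five compound concentrations were applied to cells in 96-well plates for 48 hours; endpoints were derived by simple linear interpolation of the resulting dose-response curve. At the TGI there is no net growth.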

Key:
Assay in all cases: NCI anticancer screen, dose series, 48 h
RXF 393 renal = system: RXF 393 renal
A498 renal = system: A498 renal
OVCAR-5 ovarian = system: OVCAR-5 ovarian
MDA-N = system: MDA-N
NCI-H522 lung = system: NCI-H522 lung
MDA-MB-435 = system: MDA-MB-435
BT-549 breast = system: BT-549 breast
MALME-3M melanoma = system: MALME-3M melanoma
A549 NSCLC = system: A549 NSCLC
HCT-15 colon = system: HCT-15 colon
COLO 205 colon = system: COLO 205 colon
U251 CNS = system: U251 CNS
786-0 renal = system: 786-0 renal
HOP-92 NSCLC = system: HOP-92 NSCLC
NCI-H23 lung = system: NCI-H23 lung
CCRF-CEM leukemia = system: CCRF-CEM leukemia
SF-268 CNS = system: SF-268 CNS
OVCAR-8 ovarian = system: OVCAR-8 ovarian
SR leukemia = system: SR leukemia
SK-MEL-28 melanoma = system: SK-MEL-28 melanoma
NCI-H460 lung = system: NCI-H460 lung
IGROV1 ovarian = system: IGROV1 ovarian
OVCAR-4 ovarian = system: OVCAR-4 ovarian
SK-OV-3 ovarian = system: SK-OV-3 ovarian
HOP-62 NSCLC = system: HOP-62 NSCLC
KM12 colon = system: KM12 colon
MOLT-4 leukemia = system: MOLT-4 leukemia
SF-539 CNS = system: SF-539 CNS
HT29 colon = system: HT29 colon
UACC-62 melanoma = system: UACC-62 melanoma
M14 melanoma = system: M14 melanoma
SK-MEL-5 melanoma = system: SK-MEL-5 melanoma
HS 578T breast = system: HS 578T breast
K-562 leukemia = system: K-562 leukemia
DU-145 prostate = system: DU-145 prostate
SK-MEL-2 melanoma = system: SK-MEL-2 melanoma
MCF7 breast = system: MCF7 breast
MDA-MB-231 breast = system: MDA-MB-231 breast
SN12C renal = system: SN12C renal
ACHN renal = system: ACHN renal
NCI/ADR-RES ovarian = system: NCI/ADR-RES ovarian
RPMI-8226 leukemia = system: RPMI-8226 leukemia
SW-620 colon = system: SW-620 colon
HCT-116 colon = system: HCT-116 colon
CAKI-1 renal = system: CAKI-1 renal
UACC-257 melanoma = system: UACC-257 melanoma
LOX IMVI melanoma = system: LOX IMVI melanoma
TK-10 renal = system: TK-10 renal
SF-295 CNS = system: SF-295 CNS
SNB-19 CNS = system: SNB-19 CNS
SNB-75 CNS = system: SNB-75 CNS
PC-3 prostate = system: PC-3 prostate
NCI-H226 lung = system: NCI-H226 lung
OVCAR-3 ovarian = system: OVCAR-3 ovarian
T-47D breast = system: T-47D breast
EKVX NSCLC = system: EKVX NSCLC
UO-31 renal = system: UO-31 renal
HL-60(TB) leukemia = system: HL-60(TB) leukemia
HCC-2998 colon = system: HCC-2998 colon

NC(Cc1nn[nH]n1)C(=O)O (configuration not stated)
TGI (RXF 393 renal): > 100 µM | TGI (A498 renal): > 100 µM | TGI (OVCAR-5 ovarian): > 100 µM | TGI (MDA-N): > 100 µM | TGI (NCI-H522 lung): > 100 µM | TGI (MDA-MB-435): > 100 µM | TGI (BT-549 breast): > 100 µM | TGI (MALME-3M melanoma): > 100 µM | TGI (A549 NSCLC): > 100 µM | TGI (HCT-15 colon): > 100 µM | TGI (COLO 205 colon): > 100 µM | TGI (U251 CNS): > 100 µM | TGI (786-0 renal): > 100 µM | TGI (HOP-92 NSCLC): > 100 µM | TGI (NCI-H23 lung): > 100 µM | TGI (CCRF-CEM leukemia): > 100 µM | TGI (SF-268 CNS): > 100 µM | TGI (OVCAR-8 ovarian): > 100 µM | TGI (SR leukemia): > 100 µM | TGI (SK-MEL-28 melanoma): > 100 µM | TGI (NCI-H460 lung): > 100 µM | TGI (IGROV1 ovarian): > 100 µM | TGI (OVCAR-4 ovarian): > 100 µM | TGI (SK-OV-3 ovarian): > 100 µM | TGI (HOP-62 NSCLC): > 100 µM | TGI (KM12 colon): > 100 µM | TGI (MOLT-4 leukemia): > 100 µM | TGI (SF-539 CNS): > 100 µM | TGI (HT29 colon): > 100 µM | TGI (UACC-62 melanoma): > 100 µM | TGI (M14 melanoma): > 100 µM | TGI (SK-MEL-5 melanoma): > 100 µM | TGI (HS 578T breast): > 100 µM | TGI (K-562 leukemia): > 100 µM | TGI (DU-145 prostate): > 100 µM | TGI (SK-MEL-2 melanoma): > 100 µM | TGI (MCF7 breast): > 100 µM | TGI (MDA-MB-231 breast): > 100 µM | TGI (SN12C renal): > 100 µM | TGI (ACHN renal): > 100 µM | TGI (NCI/ADR-RES ovarian): > 100 µM | TGI (RPMI-8226 leukemia): > 100 µM | TGI (SW-620 colon): > 100 µM | TGI (HCT-116 colon): > 100 µM | TGI (CAKI-1 renal): > 100 µM | TGI (UACC-257 melanoma): > 100 µM | TGI (LOX IMVI melanoma): > 100 µM | TGI (TK-10 renal): > 100 µM | TGI (SF-295 CNS): > 100 µM | TGI (SNB-19 CNS): > 100 µM | TGI (SNB-75 CNS): > 100 µM | TGI (PC-3 prostate): > 100 µM | TGI (NCI-H226 lung): > 100 µM | TGI (OVCAR-3 ovarian): > 100 µM | TGI (T-47D breast): > 100 µM | TGI (EKVX NSCLC): > 100 µM

O=[N+]([O-])c1ccc2nc3ccc([N+](=O)[O-])cn3c2c1
TGI (RXF 393 renal): > 100 µM | TGI (A498 renal): > 100 µM | TGI (OVCAR-5 ovarian): > 100 µM | TGI (MDA-N): > 100 µM | TGI (NCI-H522 lung): 65.5 µM | TGI (MDA-MB-435): > 100 µM | TGI (BT-549 breast): > 100 µM | TGI (UO-31 renal): > 100 µM | TGI (MALME-3M melanoma): > 100 µM | TGI (A549 NSCLC): > 100 µM | TGI (HCT-15 colon): > 100 µM | TGI (COLO 205 colon): > 100 µM | TGI (U251 CNS): > 100 µM | TGI (786-0 renal): > 100 µM | TGI (HOP-92 NSCLC): > 100 µM | TGI (NCI-H23 lung): > 100 µM | TGI (CCRF-CEM leukemia): > 100 µM | TGI (SF-268 CNS): > 100 µM | TGI (OVCAR-8 ovarian): > 100 µM | TGI (SR leukemia): > 100 µM | TGI (SK-MEL-28 melanoma): > 100 µM | TGI (NCI-H460 lung): > 100 µM | TGI (IGROV1 ovarian): > 100 µM | TGI (OVCAR-4 ovarian): > 100 µM | TGI (SK-OV-3 ovarian): > 100 µM | TGI (HOP-62 NSCLC): 39.1 µM | TGI (KM12 colon): > 100 µM | TGI (MOLT-4 leukemia): > 100 µM | TGI (SF-539 CNS): > 100 µM | TGI (HT29 colon): > 100 µM | TGI (HL-60(TB) leukemia): > 100 µM | TGI (UACC-62 melanoma): > 100 µM | TGI (M14 melanoma): > 100 µM | TGI (SK-MEL-5 melanoma): > 100 µM | TGI (HS 578T breast): > 100 µM | TGI (K-562 leukemia): > 100 µM | TGI (DU-145 prostate): > 100 µM | TGI (SK-MEL-2 melanoma): > 100 µM | TGI (MCF7 breast): > 100 µM | TGI (MDA-MB-231 breast): > 100 µM | TGI (SN12C renal): > 100 µM | TGI (ACHN renal): > 100 µM | TGI (NCI/ADR-RES ovarian): > 100 µM | TGI (SW-620 colon): > 100 µM | TGI (HCT-116 colon): > 100 µM | TGI (CAKI-1 renal): 89.2 µM | TGI (UACC-257 melanoma): > 100 µM | TGI (LOX IMVI melanoma): > 100 µM | TGI (TK-10 renal): > 100 µM | TGI (SF-295 CNS): > 100 µM | TGI (SNB-19 CNS): > 100 µM | TGI (SNB-75 CNS): > 100 µM | TGI (PC-3 prostate): > 100 µM | TGI (NCI-H226 lung): > 100 µM | TGI (T-47D breast): > 100 µM | TGI (EKVX NSCLC): > 100 µM

COc1ccc(N2C(=O)C3c4[nH]c5ccc(C)cc5c4C4CCC(C(C)C)CC4C3C2=O)cc1 (configuration not stated)
TGI (A498 renal): > 100 µM | TGI (OVCAR-5 ovarian): > 100 µM | TGI (MDA-N): > 100 µM | TGI (NCI-H522 lung): > 100 µM | TGI (MDA-MB-435): > 100 µM | TGI (BT-549 breast): > 100 µM | TGI (UO-31 renal): > 100 µM | TGI (A549 NSCLC): > 100 µM | TGI (HCT-15 colon): > 100 µM | TGI (COLO 205 colon): > 100 µM | TGI (U251 CNS): > 100 µM | TGI (786-0 renal): > 100 µM | TGI (HOP-92 NSCLC): > 100 µM | TGI (NCI-H23 lung): > 100 µM | TGI (CCRF-CEM leukemia): > 100 µM | TGI (SF-268 CNS): > 100 µM | TGI (OVCAR-8 ovarian): > 100 µM | TGI (SR leukemia): > 100 µM | TGI (SK-MEL-28 melanoma): > 100 µM | TGI (NCI-H460 lung): > 100 µM | TGI (IGROV1 ovarian): > 100 µM | TGI (OVCAR-4 ovarian): > 100 µM | TGI (SK-OV-3 ovarian): > 100 µM | TGI (HCC-2998 colon): > 100 µM | TGI (HOP-62 NSCLC): > 100 µM | TGI (KM12 colon): > 100 µM | TGI (MOLT-4 leukemia): > 100 µM | TGI (HT29 colon): > 100 µM | TGI (UACC-62 melanoma): > 100 µM | TGI (M14 melanoma): > 100 µM | TGI (SK-MEL-5 melanoma): > 100 µM | TGI (HS 578T breast): > 100 µM | TGI (K-562 leukemia): > 100 µM | TGI (DU-145 prostate): > 100 µM | TGI (SK-MEL-2 melanoma): > 100 µM | TGI (MCF7 breast): > 100 µM | TGI (MDA-MB-231 breast): > 100 µM | TGI (SN12C renal): > 100 µM | TGI (ACHN renal): > 100 µM | TGI (NCI/ADR-RES ovarian): > 100 µM | TGI (RPMI-8226 leukemia): > 100 µM | TGI (SW-620 colon): > 100 µM | TGI (HCT-116 colon): > 100 µM | TGI (CAKI-1 renal): > 100 µM | TGI (UACC-257 melanoma): > 100 µM | TGI (LOX IMVI melanoma): > 100 µM | TGI (TK-10 renal): > 100 µM | TGI (SF-295 CNS): > 100 µM | TGI (SNB-19 CNS): > 100 µM | TGI (SNB-75 CNS): 74.2 µM | TGI (PC-3 prostate): > 100 µM | TGI (NCI-H226 lung): > 100 µM | TGI (OVCAR-3 ovarian): > 100 µM | TGI (T-47D breast): > 100 µM | TGI (EKVX NSCLC): > 100 µM
